# Assay results from US20260193271A1, “PAN-KRAS INHIBITOR COMPOUND” (ADLAI NORTYE BIOPHARMA CO., LTD., priority 2022, published 2026).
# Columns and labels:
# AsPC-1 (G12D) = experiment: In vitro cell proliferation inhibition test (CellTiter-Glo), AsPC-1; type: cell-based; details: KRAS (p.G12D), 72 h co-incubation
# Summary of the method: (§1)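 IC50 was derived by four-parameter fitting of normalized CellTiter-Glo signals. These were measured after 72 h co-incubation with compound at 10 concentrations, 3-fold serial, final maximum 10 μM. Plating was 1000-5000 cells/well, adjusted to growth rate, with overnight attachment at 37 °C, 5% CO2.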
# SW480 (G12V) = experiment: In vitro cell proliferation inhibition test (CellTiter-Glo), SW480; type: cell-based; details: SW480 colon cell line, KRAS (p.G12V), 72 h co-incubation
# Summary of the method: as §1
# [1] = Homo sapiens, ASPC1, AsPC-1 pancreas cell line
Compound,IC50 (AsPC-1 (G12D); [1]) [nM],IC50 (SW480 (G12V); Homo sapiens) [nM],IC50 (AsPC-1 (G12D); AsPC-1 pancreas cell line) [nM],IC50 (SW480 (G12V)) [nM]
"CCn1c(-c2cc(-c3nc(C)n(C)n3)cnc2[C@H](C)OC)c2c3cc(ccc31)-c1csc(n1)C[C@H](NC(=O)[C@H]1C[C@@H]1C)C(=O)N1CCC[C@H](N1)C(=O)OCC(C)(C)C2 (atropisomer, axis not shown) [Compound 20, (1S,2S)-N-((6^3S,4S,Z)-1^2-(5-(4,5-dimethyl-4H-1,2,4-triazol-3-yl)-2-((S)-1-methoxyethyl)pyridin-3-yl)-1^1-ethyl-10,10-dimethyl-5,7-dioxo-6^1,6^2,6^3,6^4,6^5,6^6-hexahydro-1^1H-8-oxa-2(4,2)-thiazola-1(5,3)-indola-6(1,3)-pyridazinacycloundecaphane-4-yl)-2-methylcyclopropane-1-carboxamide]",3.4,3,–,–
"CCn1c(-c2cc(-c3ncc(CN4CCOCC4)cn3)cnc2[C@H](C)OC)c2c3cc(ccc31)-c1csc(n1)C[C@H](NC(=O)C1C[C@@H]1C)C(=O)N1CCC[C@H](N1)C(=O)OCC(C)(C)C2 (stereo partly drawn) [Compound 14, (1S,2S)-N-((6^3S,4S,Z)-1^1-ethyl-1^2-(2-((S)-1-methoxyethyl)-5-(5-(morpholinomethyl)pyrimidin-2-yl)pyridin-3-yl)-10,10-dimethyl-5,7-dioxo-6^1,6^2,6^3,6^4,6^5,6^6-hexahydro-1^1H-8-oxa-2(4,2)-thiazola-1(5,3)-indola-6(1,3)-pyridazinacycloundecaphane-4-yl)-2-methylcyclopropane-1-carboxamide]",1.7,2.8,–,–
"CCn1c(-c2cc(-c3ccc(CN4CCOCC4)cn3)cnc2[C@H](C)OC)c2c3cc(ccc31)-c1csc(n1)C[C@H](NC(=O)[C@H]1C[C@@H]1C)C(=O)N1CCC[C@H](N1)C(=O)OCC(C)(C)C2 (atropisomer, axis not shown) [Compound 12, (1S,2S)-N-((6^3S,4S,Z)-1^1-ethyl-1^2-(6′-((S)-1-methoxyethyl)-5-(morpholinomethyl)-[2,3′-bipyridin]-5′-yl)-10,10-dimethyl-5,7-dioxo-6^1,6^2,6^3,6^4,6^5,6^6-hexahydro-1^1H-8-oxa-2(4,2)-thiazola-1(5,3)-indola-6(1,3)-pyridazinacycloundecaphane-4-yl)-2-methylcyclopropane-1-carboxamide]",16,6.6,–,–
"CCn1c(-c2cc(-c3cc(C4CN(C)CCO4)on3)cnc2C(C)OC)c2c3cc(ccc31)-c1csc(n1)CC(NC(=O)C1C(C)C1C)C(=O)N1CCCC(N1)C(=O)OCC(C)(C)C2 [Compound 27′, (1r,2R,3S)-N-((6^3S,4S,Z)-1^1-ethyl-1^2-(2-((S)-1-methoxyethyl)-5-(5-((S)-4-methylmorpholin-2-yl)isoxazol-3-yl)pyridin-3-yl)-10,10-dimethyl-5,7-dioxo-6^1,6^2,6^3,6^4,6^5,6^6-hexahydro-1^1H-8-oxa-2(4,2)-thiazola-1(5,3)-indola-6(1,3)-pyridazinacycloundecaphane-4-yl)-2,3-dimethylcyclopropane-1-carboxamide]",–,–,7.7,50
"CCn1c(-c2cc(-c3cc([C@@H]4CCCN4C)on3)cnc2[C@H](C)OC)c2c3cc(ccc31)-c1csc(n1)C[C@H](NC(=O)[C@H]1C[C@@H]1C)C(=O)N1CCC[C@H](N1)C(=O)OCC(C)(C)C2 (atropisomer, axis not shown) [Compound 25, (1S,2S)-N-((6^3S,4S,Z)-1^1-ethyl-1^2-(2-((S)-1-methoxyethyl)-5-(5-((S)-1-methylpyrrolidin-2-yl)isoxazol-3-yl)pyridin-3-yl)-10,10-dimethyl-5,7-dioxo-6^1,6^2,6^3,6^4,6^5,6^6-hexahydro-1^1H-8-oxa-2(4,2)-thiazola-1(5,3)-indola-6(1,3)-pyridazinacycloundecaphane-4-yl)-2-methylcyclopropane-1-carboxamide]",20,22,–,–
"(1S,2S)-N-((6^3S,4S,Z)-1^1-ethyl-1^2-(6′-((S)-1-methoxyethyl)-4-(morpholinomethyl)-[2,3′-bipyridin]-5′-yl)-10,10-dimethyl-5,7-dioxo-6^1,6^2,6^3,6^4,6^5,6^6-hexahydro-1^1H-8-oxa-2(4,2)-thiazola-1(5,3)-indola-6(1,3)-pyridazinacycloundecaphane-4-yl)-2-methylcyclopropane-1-carboxamide [Compound 11′]",–,–,242,346
"CCn1c(-c2cc(-c3cnc(CN4CCN(C)CC4)nc3)cnc2[C@H](C)OC)c2c3cc(ccc31)-c1csc(n1)C[C@H](NC(=O)[C@H]1C[C@@H]1C)C(=O)N1CCC[C@H](N1)C(=O)OCC(C)(C)C2 (atropisomer, axis not shown) [Compound 53, (1S,2S)-N-((6^3S,4S,Z)-1^1-ethyl-1^2-(2-((S)-1-methoxyethyl)-5-(2-((4-methylpiperazin-1-yl)methyl)pyrimidin-5-yl)pyridin-3-yl)-10,10-dimethyl-5,7-dioxo-6^1,6^2,6^3,6^4,6^5,6^6-hexahydro-1^1H-8-oxa-2(4,2)-thiazola-1(5,3)-indola-6(1,3)-pyridazinacycloundecaphane-4-yl)-2-methylcyclopropane-1-carboxamide]",4.3,1.7,–,–
"CCn1c(-c2cc(-c3cnc(CN4CCOCC4)nc3)cnc2[C@H](C)OC)c2c3cc(ccc31)-c1csc(n1)C[C@H](NC(=O)[C@H]1C[C@@H]1C)C(=O)N1CCC[C@H](N1)C(=O)OCC(C)(C)C2 (atropisomer, axis not shown) [Compound 66, (1S,2S)-N-((6^3S,4S,Z)-1^1-ethyl-1^2-(2-((S)-1-methoxyethyl)-5-(2-(morpholinomethyl)pyrimidin-5-yl)pyridin-3-yl)-10,10-dimethyl-5,7-dioxo-6^1,6^2,6^3,6^4,6^5,6^6-hexahydro-1H-8-oxa-2(4,2)-thiazola-1(5,3)-indola-6(1,3)-pyridazinacycloundecaphane-4-yl)-2-methylcyclopropane-1-carboxamide]",10,3.4,–,–
"(1S,2S)-N-((6^3S,4S,Z)-1^1-ethyl-1^2-(6′-((S)-1-methoxyethyl)-5-(morpholinomethyl)-[2,3′-bipyridin]-5′-yl)-10,10-dimethyl-5,7-dioxo-6^1,6^2,6^3,6^4,6^5,6^6-hexahydro-1^1H-8-oxa-2(4,2)-thiazola-1(5,3)-indola-6(1,3)-pyridazinacycloundecaphane-4-yl)-2-methylcyclopropane-1-carboxamide [Compound 12′]",–,–,814,319
"CCn1c(-c2cc(-c3cnc(CN4CCOCC4)nc3)cnc2[C@H](C)OC)c2c3cc(ccc31)-c1csc(n1)C[C@H](NC(=O)[C@H]1[C@H](C)[C@@H]1C)C(=O)N1CCC[C@H](N1)C(=O)OCC(C)(C)C2 (atropisomer, axis not shown) [Compound 39, (1r,2R,3S)-N-((6^3S,4S,Z)-1^1-ethyl-1^2-(2-((S)-1-methoxyethyl)-5-(2-(morpholinomethyl)pyrimidin-5-yl)pyridin-3-yl)-10,10-dimethyl-5,7-dioxo-6^1,6^2,6^3,6^4,6^5,6^6-hexahydro-1H-8-oxa-2(4,2)-thiazola-1(5,3)-indola-6(1,3)-pyridazinacycloundecaphane-4-yl)-2,3-dimethylcyclopropane-1-carboxamide]",0.57,0.48,–,–
"CCn1c(-c2cc(-c3ncc(CN4CCS(=N)(=O)CC4)cn3)cnc2[C@H](C)OC)c2c3cc(ccc31)-c1csc(n1)C[C@H](NC(=O)[C@H]1C[C@@H]1C)C(=O)N1CCC[C@H](N1)C(=O)OCC(C)(C)C2 (atropisomer, axis not shown) [Compound 49, (1S,2S)-N-((6^3S,4S,Z)-1^1-ethyl-1^2-(5-(5-((1-imino-1-oxido-1λ^6-thiomorpholino)methyl)pyrimidin-2-yl)-2-((S)-1-methoxyethyl)pyridin-3-yl)-10,10-dimethyl-5,7-dioxo-6^1,6^2,6^3,6^4,6^5,6^6-hexahydro-1^1H-8-oxa-2(4,2)-thiazola-1(5,3)-indola-6(1,3)-pyridazinacycloundecaphane-4-yl)-2-methylcyclopropane-1-carboxamide]",1,4.3,–,–
"CCn1c(-c2cc(-c3cc([C@@H]4COCCN4C)on3)cnc2[C@H](C)OC)c2c3cc(ccc31)-c1csc(n1)C[C@H](NC(=O)[C@H]1[C@H](C)[C@@H]1C)C(=O)N1CCC[C@H](N1)C(=O)OCC(C)(C)C2 (atropisomer, axis not shown) [Compound 32, (1r,2R,3S)-N-((6^3S,4S,Z)-1^1-ethyl-1^2-(2-((S)-1-methoxyethyl)-5-(5-((S)-4-methylmorpholin-3-yl)isoxazol-3-yl)pyridin-3-yl)-10,10-dimethyl-5,7-dioxo-6^1,6^2,6^3,6^4,6^5,6^6-hexahydro-1^1H-8-oxa-2(4,2)-thiazola-1(5,3)-indola-6(1,3)-pyridazinacycloundecaphane-4-yl)-2,3-dimethylcyclopropane-1-carboxamide]",1.3,1.6,–,–
"CCn1c(-c2cc(-c3nc(C)no3)cnc2[C@H](C)OC)c2c3cc(ccc31)-c1csc(n1)C[C@H](NC(=O)[C@H]1C[C@@H]1C)C(=O)N1CCC[C@H](N1)C(=O)OCC(C)(C)C2 (atropisomer, axis not shown) [Compound 21, (1S,2S)-N-((6^3S,4S,Z)-1^1-ethyl-1^2-(2-((S)-1-methoxyethyl)-5-(3-methyl-1,2,4-oxadiazol-5-yl)pyridin-3-yl)-10,10-dimethyl-5,7-dioxo-6^1,6^2,6^3,6^4,6^5,6^6-hexahydro-1^1H-8-oxa-2(4,2)-thiazola-1(5,3)-indola-6(1,3)-pyridazinacycloundecaphane-4-yl)-2-methylcyclopropane-1-carboxamide]",11,15,–,–
